Data as given in patent US8999956B2, “N-[(het)arylalkyl)] pyrazole(thio)carboxamides and their heterosubstituted analogues” (Bayer Intellectual Property GmbH, priority 2010, dated 2015).
Where “and” joins values, the source holds several entries; their conditions need not be identical. Equal entries are not always repeated. Where two headings read alike, the source gives them in different places.

Columns and labels:
[1] = system: Aspergillus parasiticus; experiment: microbe, parasite or virus in culture; assay type: cell-based
[2] = log P by HPLC on reversed-phase column (EEC Directive 79/831 Annex V.A8); assay type: physicochemical
Description: In table 1, the log P values were determined in accordance with EEC Directive 79/831 Annex V.A8 by HPLC (High Performance Liquid Chromatography) on a reversed-phase column (C18), using the method described below: Temperature: 40° C.; […]

[3] = system: aflatoxines produced by Aspergillus parasiticus; experiment: microbe, parasite or virus in culture; assay type: cell-based
[4] = system: Pyrenophora teres; experiment: In vivo preventive test on Pyrenophora teres (barley); settings: 500 ppm of active ingredient, evaluated 7-9 days after inoculation
Description: (§1) Solvent: 49 parts by weight of N,N-dimethylformamide Emulsifier: 1 part by weight of alkylaryl polyglycol ether To produce a suitable preparation of active compound, 1 part by weight of active compound is mixed with the stated amounts of solvent and emulsifier, and the concentrate is diluted with water to the desired concentration. To test for preventive activity, young plants are sprayed with the preparation of active compound at the stated rate of application. One day after this treatment, the plants are inoculated with an aqueous spore suspension of Pyrenophora teres.

[5] = system: Alternaria solani; experiment: In vivo preventive test on Alternaria solani (tomato); settings: 500 ppm of active ingredient, evaluated 7 days after inoculation
Description: as §1, with “Alkylarylpolyglycolether” for “alkylaryl polyglycol ether”, “Alternaria solani.” for “Pyrenophora teres.”

SMILES | % Inhibition of fungal growth at 50 μM [1] | logP ([2]; mixture of two or more isomers, one value per isomer, HPLC reversed-phase C18, 40° C., 0.1% aqueous formic acid and acetonitrile) | % Inhibition of Aflatoxin at 50 μM [3] | Efficacy [4] | logP [2] | Efficacy [5] | % Inhibition of fungal growth at 50 μM ([1]; 50 µM) | % Inhibition of Aflatoxin at 50 μM ([3]; 50 µM)
CC1CCCC(Cc2cccc(Cl)c2)C1NC(=O)c1c(C(F)F)nn(C)c1F (mixture of isomers) [Example 255] | 90% | 4.31 and 4.44 and 4.54 | 100% |  |  |  |  | 
CC(COc1cc(Cl)cc(Cl)c1)NC(=O)c1c(C(F)F)nn(C)c1F (racemic) [Example 121] | 98% |  | 100% | 100% | 3.72 | 90% |  | 
CC(COc1cc(Cl)cc(Cl)c1)NC(=O)c1c(C(F)F)nn(C)c1Cl (racemic) [Example 122] | 91% |  | 100% | 100% | 3.92 | 100% |  | 
CCC(COc1cc(Cl)cc(Cl)c1)NC(=O)c1c(C(F)F)nn(C)c1F (racemic) [Example 123] | 96% |  | 100% | 100% | 4.04 | 95% |  | 
CC(CNC(=O)c1c(C(F)F)nn(C)c1F)Cc1ccc(Cl)c(Cl)c1 (racemic) [Example 128] | 71% |  | 83% | 100% | 3.68 | 95% |  | 
CC(CCc1ccc(Cl)c(Cl)c1)NC(=O)c1c(C(F)F)nn(C)c1F (racemic) [Example 132] | 85% |  | 100% | 100% | 3.65 | 100% |  | 
CC(CCc1ccccc1Cl)NC(=O)c1c(C(F)F)nn(C)c1Cl (racemic) [Example 143] | 73% |  | 96% | 100% | 3.41 | 100% |  | 
CC(C)CC(C)C1CCCC1NC(=O)c1c(C(F)F)nn(C)c1F (single isomer, unassigned) [Example 317] |  |  | 100% |  | 4.22 isomer B |  | 90% | 
Cc1ccsc1CCC(C)NC(=O)c1c(C(F)F)nn(C)c1Cl (stereo not drawn) [Example 76] | 83% |  | 100% |  | 3.17 |  |  | 
Cc1ccsc1CCC(C)NC(=O)c1c(C(F)F)nn(C)c1F (stereo not drawn) [Example 77] | 98% |  | 100% |  | 3.02 |  |  | 
CCC(CCc1sccc1C)NC(=O)c1c(C(F)F)nn(C)c1Cl (stereo not drawn) [Example 78] | 65% |  | 83% |  | 3.48 |  |  | 
CCC(CCc1sccc1C)NC(=O)c1c(C(F)F)nn(C)c1F (stereo not drawn) [Example 79] | 93% |  | 100% |  | 3.31 |  |  | 
CN(CCN(C)c1cccc(Cl)c1)C(=O)c1c(C(F)F)nn(C)c1Cl [Example 81] | 80% |  | 97% |  | 3.19 | 90% |  | 
CN(CCN(C)c1cccc(Cl)c1)C(=O)c1c(C(F)F)nn(C)c1F [Example 82] | 100% |  | 100% |  | 3.02 | 95% |  | 
CC(CNC(=O)c1c(C(F)F)nn(C)c1F)Cc1cc(Cl)cc(Cl)c1 (stereo not drawn) [Example 116] | 82% |  | 100% | 100% | 3.83 | 90% |  | 
Cn1nc(C(F)F)c(C(=O)NCCOc2cc(Cl)cc(Cl)c2)c1F [Example 117] | 81% |  | 99% | 78% | 3.35 |  |  | 
CC(CCc1cc(Cl)cc(Cl)c1)NC(=O)c1c(C(F)F)nn(C)c1Cl (stereo not drawn) [Example 119] | 77% |  | 95% |  | 4.01 |  |  | 
CC(CCc1cc(Cl)cc(Cl)c1)NC(=O)c1c(C(F)F)nn(C)c1F (stereo not drawn) [Example 120] | 100% |  | 100% |  | 3.83 |  |  | 
Cn1nc(C(F)F)c(C(=O)N(CCOc2c(Cl)cccc2Cl)C2CC2)c1F [Example 124, N-cyclopropyl-N-[2-(2,6-dichlorophenoxy)ethyl]-3-(difluoromethyl)-5-fluoro-1-methyl-1H-pyrazole-4-carboxamide] |  |  |  | 90% | 4.23 | 95% | 81% | 99%
Cn1nc(C(F)F)c(C(=O)NC(C)(C)CCc2cc(Cl)cc(Cl)c2)c1Cl [Example 125] | 76% |  | 96% | 100% | 4.64 | 95% |  | 
Cn1nc(C(F)F)c(C(=O)NC(C)(C)CCc2cc(Cl)cc(Cl)c2)c1F [Example 126] | 89% |  | 100% | 100% | 4.41 | 90% |  | 

SMILES | % Inhibition of fungal growth at 50 μM [1] | logP ([2]; mixture of two or more isomers, one value per isomer, HPLC reversed-phase C18, 40° C., 0.1% aqueous formic acid and acetonitrile) | % Inhibition of Aflatoxin at 50 μM [3] | Efficacy [4] | logP [2] | Efficacy [5] | % Inhibition of fungal growth at 50 μM ([1]; 50 µM) | % Inhibition of Aflatoxin at 50 μM ([3]; 50 µM)
Cn1nc(C(F)F)c(C(=O)NC(C)(C)CCc2ccc(Cl)c(Cl)c2)c1F [Example 134] | 79% |  | 100% |  | 4.21 |  |  | 
Cn1nc(C(F)F)c(C(=O)NC(C)(C)CCc2cccc(C(F)(F)F)c2)c1F [Example 136] | 71% |  | 93% | 95% | 3.94 | 80% |  | 
CN(CCCc1ccccc1Cl)C(=O)c1c(C(F)F)nn(C)c1F [Example 142] | 84% |  | 100% | 95% | 3.06 | 100% |  | 
CC(CNC(=O)c1c(C(F)F)nn(C)c1Cl)Cc1c(F)cccc1F (stereo not drawn) [Example 158] |  |  |  | 95% | 3.21 | 80% |  | 
CC(CNC(=O)c1c(C(F)F)nn(C)c1Cl)Cc1cc(Cl)ccc1Cl (stereo not drawn) [Example 164] |  |  |  | 100% | 3.87 | 95% |  | 
Cn1nc(C(F)F)c(C(=O)NCCOc2cc(Cl)ccc2Cl)c1F [Example 169] | 84% |  | 100% |  | 3.11 | 90% |  | 
CC(CCc1cc(Cl)ccc1Cl)NC(=O)c1c(C(F)F)nn(C)c1Cl (stereo not drawn) [Example 171] |  |  |  | 100% | 3.87 | 95% |  | 
CCC(COc1cc(Cl)ccc1Cl)NC(=O)c1c(C(F)F)nn(C)c1Cl (stereo not drawn) [Example 176] |  |  |  | 95% | 4.01 | 80% |  | 
Cn1nc(C(F)F)c(C(=O)NC(C)(C)CCc2cc(Cl)ccc2Cl)c1Cl [Example 177] |  |  |  | 100% | 4.49 | 100% |  | 
CC(CCc1ccc(Cl)cc1Cl)NC(=O)c1c(C(F)F)nn(C)c1Cl (stereo not drawn) [Example 185] | 89% |  | 100% |  | 3.99 |  |  | 
CC(COc1ccc(Cl)cc1Cl)N(C(=O)c1c(C(F)F)nn(C)c1Cl)C1CC1 (stereo not drawn) [Example 188] |  |  |  | 100% | 4.41 | 100% |  | 
Cn1nc(C(F)F)c(C(=O)NC(C)(C)CCc2ccc(Cl)cc2Cl)c1Cl [Example 195] |  |  |  | 95% | 4.61 | 95% |  | 
Cn1nc(C(F)F)c(C(=O)NCCOc2c(Cl)cc(Cl)cc2Cl)c1F [Example 202] | 84% |  | 100% | 80% | 3.60 |  |  | 
Cn1nc(C(F)F)c(C(=O)N(CCOc2c(Cl)cc(Cl)cc2Cl)C2COC2)c1F [Example 210] |  |  |  | 90% | 3.42 | 70% |  | 
CN(C(=O)c1c(C(F)F)nn(C)c1F)C(CSCc1ccccc1)C1CC1 (stereo not drawn) [Example 225] | 85% |  | 100% |  | 3.46 | 95% |  | 
Cn1nc(C(F)F)c(C(=O)N(C[Si](C)(C)Cc2cc(Cl)cc(Cl)c2)C2CC2)c1Cl [Example 292] | 86% |  | 100% |  | 5.14 |  |  | 
CSC1CCCCC1N(C(=O)c1c(C(F)F)nn(C)c1F)C1CC1 (stereo not drawn) [Example 351] | 100% |  | 100% |  | 3.50 |  |  | 
CSC1CCCCC1N(C(=O)c1c(C(F)F)nn(C)c1Cl)C1CC1 (stereo not drawn) [Example 352] | 85% |  | 99% |  | 3.73 |  |  | 
Cn1nc(C(F)F)c(C(=O)NCC2CCCC(C(F)(F)F)C2)c1F (stereo not drawn) [Example 379] |  |  |  | 100% | 2.96 | 95% |  | 
Cn1nc(C(F)F)c(C(=O)NC2(C3CCCCC3)CC2)c1Cl [Example 380] |  |  |  | 100% | 3.29 | 95% |  | 
